Results as given in ChEMBL document CHEMBL1201862, “PubChem BioAssay data set” (2004).
Calls of active or inactive are those of the source.

Legend:
[1] = A Cell Based Assay for the Identification of Probe candidate Compounds with Anti- Venezuelan Equine Encephalitis virus. [Related pubchem assays: 2409, 2419, 1621, 2238, 2405, 2024, 2065, 2402, 2414, 1635, 1650, 2244 ]; type: functional
Vero [2] = assay: cytotoxicity of synthesized analogs in Vero 76, SAR follow-up, cytotoxicity control for West Nile virus antiviral project, Vero 76 cells (AID 2414); type: functional; details: Chlorocebus sabaeus
Vero [3] = assay: cytotoxicity of synthesized analogs in Vero cells, SAR follow-up, cytotoxicity control for West Nile virus antiviral project, cell-based, set II (AID 2402); type: functional; details: Chlorocebus sabaeus
[4] = molecular target: T1, Alkaline phosphatase, tissue-nonspecific isozyme (Homo sapiens, UniProt P05186)
T1 sequence (P05186 whole entry): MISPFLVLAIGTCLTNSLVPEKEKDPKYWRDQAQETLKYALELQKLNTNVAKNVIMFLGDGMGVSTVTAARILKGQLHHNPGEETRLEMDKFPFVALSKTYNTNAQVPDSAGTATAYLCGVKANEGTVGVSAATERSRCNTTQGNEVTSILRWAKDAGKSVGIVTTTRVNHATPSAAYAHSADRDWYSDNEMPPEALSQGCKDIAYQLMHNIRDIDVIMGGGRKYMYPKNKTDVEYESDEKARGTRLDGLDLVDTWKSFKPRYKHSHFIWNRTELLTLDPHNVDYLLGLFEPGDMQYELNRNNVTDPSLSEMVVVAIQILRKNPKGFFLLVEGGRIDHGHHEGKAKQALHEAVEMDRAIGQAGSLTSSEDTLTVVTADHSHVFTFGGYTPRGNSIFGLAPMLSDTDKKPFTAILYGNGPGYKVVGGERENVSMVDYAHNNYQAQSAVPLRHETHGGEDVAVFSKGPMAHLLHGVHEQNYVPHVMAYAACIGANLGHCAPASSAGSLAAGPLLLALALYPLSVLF

[5] = cytotoxicity in HEK-293T NF-kB-Luc cells, dose response, cytotoxicity control for B/T-cell NF-kB inhibitor project, cell-based, uHTS hits (AID 489019); type: functional;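 further: IC50 reflects cytotoxicity as loss of cell viability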
[6] = inhibitors of firefly luciferase expression or activity, dose response, H4 neuroglioma cells, luminescence (AID 1990); type: functional, cell-based
[7] = inhibitors of SNCA 5'UTR-driven translation, confirmation, luminescence, H4 neuroglioblastoma cells, dose confirmation (AID 2454); type: functional, cell-based;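 further: H4 neuroglioblastoma cells carrying an alpha-synuclein 5'UTR luciferase reporter; potency for inhibition of the luciferase signal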
[8] = inhibitors of SNCA 5'UTR-driven reporter translation, confirmation, H4 neuroglioma cells, luminescence (AID 1988); type: functional, cell-based
[9] = luciferase reporter signal reduction – luminescence, H4-C neuroglioblastoma cells, dose response (AID 2458); type: functional, cell-based;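 further: H4 neuroglioblastoma cells stably carrying a luciferase reporter gene fusion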
cells [10] = type: functional, cell-based
Jurkat = assay: antigen receptor-induced NF-kB inhibitors, dose response, Jurkat, luciferase reporter, luminescence, B- and T-cell (AID 489004); type: functional, cell-based; details: Homo sapiens;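 further: NF-kB luciferase reporter Jurkat cells stimulated with PMA plus ionomycin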
[11] = Luminescence Cell-Based Dose Response HTS to Identify Inhibitors of 5'UTR Stem-Loop Driven Prion Protein mRNA Translation in H4 Neuroglioblastoma Cells. [Related pubchem assays: 1827 (Project Summary), 1813 (Primary HTS)]; type: functional
[12] = Luminescence Cell-Based Dose Confirmation HTS to Identify Inhibitors of Platelet Dense Granule Release. [Related pubchem assays: 1663 (Primary HTS), 1678 (Summary of Project)]; type: functional
[13] = molecular target: T2, Trace amine-associated receptor 1 (Homo sapiens, UniProt Q96RJ0); assay: Fluorescence-based cell-based high throughput dose response assay to identify agonists of the human trace amine associated receptor 1 (TAAR1).; type: functional
T2 sequence (Q96RJ0 whole entry): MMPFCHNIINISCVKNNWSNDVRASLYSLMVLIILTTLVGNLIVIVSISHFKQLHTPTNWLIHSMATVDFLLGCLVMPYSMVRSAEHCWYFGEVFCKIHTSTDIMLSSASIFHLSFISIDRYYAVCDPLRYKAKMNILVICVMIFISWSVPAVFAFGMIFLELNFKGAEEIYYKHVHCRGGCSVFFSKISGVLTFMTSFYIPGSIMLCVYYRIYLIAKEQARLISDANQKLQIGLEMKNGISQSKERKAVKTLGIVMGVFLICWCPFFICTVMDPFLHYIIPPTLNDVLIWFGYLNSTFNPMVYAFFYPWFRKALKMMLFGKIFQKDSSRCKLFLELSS

[14] = molecular target: T3, Oxysterols receptor LXR-beta (Homo sapiens, UniProt P55055); type: functional, cell-based;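 further: agonist activity at LXR measured by a cell-based luminescence readout across a dose range, run as a counterscreen for daf-12 agonists; HEK293 cells with Gal4-LXR fusion and GAL4-driven luciferase reporter; potency for activation of Gal4-LXR reporter so compounds are agonists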
T3 sequence (P55055 whole entry): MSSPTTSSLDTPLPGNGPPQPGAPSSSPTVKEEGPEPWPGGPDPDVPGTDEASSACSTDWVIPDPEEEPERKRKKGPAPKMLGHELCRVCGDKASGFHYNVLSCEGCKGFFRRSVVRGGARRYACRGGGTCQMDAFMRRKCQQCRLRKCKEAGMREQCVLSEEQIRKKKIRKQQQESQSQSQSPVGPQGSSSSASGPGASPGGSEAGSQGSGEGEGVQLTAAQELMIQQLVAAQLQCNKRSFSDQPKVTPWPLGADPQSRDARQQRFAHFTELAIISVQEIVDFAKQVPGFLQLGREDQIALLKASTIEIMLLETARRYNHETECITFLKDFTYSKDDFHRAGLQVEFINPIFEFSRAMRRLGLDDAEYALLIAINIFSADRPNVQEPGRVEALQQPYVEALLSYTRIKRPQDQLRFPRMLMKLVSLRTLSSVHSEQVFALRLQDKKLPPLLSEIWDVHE

HT-1080 = assay: cytotoxicity in HT1080 fibrosarcoma cells, cell-based, fluorescence readout (AID 620); type: functional; details: Homo sapiens
cells [15] = type: functional, cell-based; remark: listed apart in the source
[16] = molecular target: T4, Luciferin 4-monooxygenase (Photinus pyralis, UniProt P08659); assay: firefly luciferase enzyme inhibitors, dose response, biochemical, luminescence (AID 1891)
T4 sequence (P08659 whole entry): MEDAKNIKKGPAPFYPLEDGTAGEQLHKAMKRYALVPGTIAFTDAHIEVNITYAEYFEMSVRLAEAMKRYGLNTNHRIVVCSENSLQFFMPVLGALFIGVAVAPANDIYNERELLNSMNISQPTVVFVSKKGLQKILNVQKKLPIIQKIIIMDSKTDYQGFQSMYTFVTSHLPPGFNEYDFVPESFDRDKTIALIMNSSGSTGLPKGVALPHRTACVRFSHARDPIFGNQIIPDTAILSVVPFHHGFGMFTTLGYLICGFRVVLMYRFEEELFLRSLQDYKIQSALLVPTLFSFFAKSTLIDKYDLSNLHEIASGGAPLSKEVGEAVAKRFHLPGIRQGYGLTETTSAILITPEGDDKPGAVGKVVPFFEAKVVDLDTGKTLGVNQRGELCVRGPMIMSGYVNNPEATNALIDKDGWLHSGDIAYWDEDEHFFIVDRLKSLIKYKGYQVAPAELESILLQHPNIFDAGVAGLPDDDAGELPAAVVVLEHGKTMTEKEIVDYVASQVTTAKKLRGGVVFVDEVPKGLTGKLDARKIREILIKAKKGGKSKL

Protein Rev = molecular target: T5, Protein Rev (Human immunodeficiency virus type 1 group M subtype B (isolate WMJ22)(HIV-1), UniProt P05866); assay: HIV-1 Rev-RRE RNA binding disruptors, dose response, biochemical, protein-RNA interaction (AID 842); set-up: species or system Human immunodeficiency virus 1
T5 sequence (P05866 whole entry): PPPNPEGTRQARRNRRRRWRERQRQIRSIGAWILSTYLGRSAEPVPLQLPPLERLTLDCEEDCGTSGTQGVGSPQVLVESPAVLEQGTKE

[17] = molecular target: T2, Trace amine-associated receptor 1; assay: Counterscreen for agonists of the human trace amine associated receptor 1 (hTAAR1): Fluorescence-based cell-based high throughput dose response assay to identify hTAAR1 agonist that also desensitize TAAR1 receptor response.; type: functional
[18] = molecular target: T4, Luciferin 4-monooxygenase; assay: Counter Screen for Luciferase-based Assay Positives. [Related pubchem assays: 620, 618, 411 ]
cells [19] = type: functional, cell-based; remark: listed apart in the source
[20] = molecular target: T6, Heat shock 70 kDa protein 1A (Homo sapiens, UniProt P0DMV8); assay: Hsp70 inhibitors, probe displacement, primary screen, biochemical, fluorescence polarization (AID 583)
T6 sequence (P0DMV8 whole entry): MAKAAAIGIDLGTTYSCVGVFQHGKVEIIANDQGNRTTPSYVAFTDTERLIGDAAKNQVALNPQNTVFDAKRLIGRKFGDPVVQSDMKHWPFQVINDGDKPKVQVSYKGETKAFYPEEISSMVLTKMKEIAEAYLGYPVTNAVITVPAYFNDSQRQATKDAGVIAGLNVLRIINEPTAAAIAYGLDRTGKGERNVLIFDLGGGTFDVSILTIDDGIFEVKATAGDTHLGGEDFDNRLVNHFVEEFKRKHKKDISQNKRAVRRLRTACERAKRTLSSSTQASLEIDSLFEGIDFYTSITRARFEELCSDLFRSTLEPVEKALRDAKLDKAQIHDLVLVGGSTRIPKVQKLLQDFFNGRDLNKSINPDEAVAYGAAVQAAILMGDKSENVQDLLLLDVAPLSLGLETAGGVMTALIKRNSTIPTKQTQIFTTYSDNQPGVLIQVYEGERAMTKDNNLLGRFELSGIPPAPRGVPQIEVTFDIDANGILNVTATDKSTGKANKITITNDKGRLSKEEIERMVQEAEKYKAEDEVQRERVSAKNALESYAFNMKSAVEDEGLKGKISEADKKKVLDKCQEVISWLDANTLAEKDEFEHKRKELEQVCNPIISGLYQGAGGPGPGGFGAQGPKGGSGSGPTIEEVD

[21] = molecular target: T6, Heat shock 70 kDa protein 1A; assay: Hsp70 inhibitors, biochemical, TR-FRET (AID 786)
[22] = microbe, parasite or virus in culture; type: functional; details: Mycobacterium tuberculosis
[23] = molecular target: Heat shock protein HSP 90-alpha (Homo sapiens, UniProt P07900); type: functional, organism-based
Protein skinhead-1 = molecular target: T7, Protein skinhead-1 (Caenorhabditis elegans, UniProt P34707); type: functional
T7 sequence (P34707 whole entry): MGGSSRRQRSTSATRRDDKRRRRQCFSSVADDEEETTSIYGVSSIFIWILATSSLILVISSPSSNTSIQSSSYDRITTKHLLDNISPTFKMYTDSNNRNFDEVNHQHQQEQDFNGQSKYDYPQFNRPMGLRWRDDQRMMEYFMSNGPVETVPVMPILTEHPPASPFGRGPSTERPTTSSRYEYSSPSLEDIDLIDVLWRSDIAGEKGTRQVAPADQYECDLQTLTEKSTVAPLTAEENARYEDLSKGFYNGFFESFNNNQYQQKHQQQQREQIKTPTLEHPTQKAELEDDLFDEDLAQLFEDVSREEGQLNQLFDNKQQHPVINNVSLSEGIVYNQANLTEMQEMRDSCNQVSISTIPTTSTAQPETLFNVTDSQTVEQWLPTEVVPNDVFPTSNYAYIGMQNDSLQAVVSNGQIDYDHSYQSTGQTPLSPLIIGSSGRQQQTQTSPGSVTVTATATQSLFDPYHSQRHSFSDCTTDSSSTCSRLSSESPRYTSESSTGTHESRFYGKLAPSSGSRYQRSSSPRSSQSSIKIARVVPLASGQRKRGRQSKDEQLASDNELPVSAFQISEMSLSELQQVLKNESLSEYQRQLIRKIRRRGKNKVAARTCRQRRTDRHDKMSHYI

INS1 = assay: beta cell apoptosis inhibitors, cytokine rescue, dose response, luminescence, retest (AID 449756); type: functional, cell-based; details: Rattus norvegicus;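 further: cell death triggered by IL-1 beta plus TNF-alpha plus IFN-gamma mixture; protective hits raise ATP signal compared with cytokine alone wells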
[24] = molecular target: Serine/threonine-protein phosphatase PP1-alpha catalytic subunit (Homo sapiens, UniProt P62136); assay: PP1 phosphatase inhibitors, dose response, biochemical, fluorescence (AID 2403);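 further: phosphatase turnover of OMFP into fluorescent 3-O-methylfluorescein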
Serine/threonine-protein phosphatase PP1-alpha catalytic subunit, sequence (P62136 whole entry): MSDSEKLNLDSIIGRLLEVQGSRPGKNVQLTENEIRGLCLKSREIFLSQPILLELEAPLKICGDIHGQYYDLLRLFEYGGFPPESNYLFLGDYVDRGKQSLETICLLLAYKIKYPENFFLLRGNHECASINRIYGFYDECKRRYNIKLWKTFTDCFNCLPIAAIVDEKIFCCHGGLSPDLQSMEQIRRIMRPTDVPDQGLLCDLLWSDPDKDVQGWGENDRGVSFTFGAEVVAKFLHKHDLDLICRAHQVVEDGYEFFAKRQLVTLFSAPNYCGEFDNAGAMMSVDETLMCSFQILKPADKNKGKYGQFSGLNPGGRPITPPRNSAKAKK

Vero [25] = assay: cells; type: functional; details: Chlorocebus sabaeus
Melanocortin receptor 4 = Melanocortin receptor 4 (Homo sapiens, UniProt P32245); assay: MC4R antagonist potency on cAMP, dose response, cell-based, TR-FRET, biased antagonists (AID 602298); type: functional;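 further: antagonist potency against agonist-stimulated cAMP production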
Melanocortin receptor 4, sequence (P32245 whole entry): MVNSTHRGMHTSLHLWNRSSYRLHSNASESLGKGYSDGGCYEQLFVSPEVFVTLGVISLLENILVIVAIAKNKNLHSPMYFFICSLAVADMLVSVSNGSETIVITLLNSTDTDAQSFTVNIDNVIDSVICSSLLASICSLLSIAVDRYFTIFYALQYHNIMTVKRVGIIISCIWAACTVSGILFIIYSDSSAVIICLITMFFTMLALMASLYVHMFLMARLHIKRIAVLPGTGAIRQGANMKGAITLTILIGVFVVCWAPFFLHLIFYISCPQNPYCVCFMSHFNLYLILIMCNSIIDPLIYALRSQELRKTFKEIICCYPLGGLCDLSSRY

[26] = molecular target: Serine/threonine-protein phosphatase (Homo sapiens, UniProt Q9BPW0); assay: Counterscreen for inhibitors of PP1: fluorescence-based biochemical high throughput dose response assay to identify inhibitors of Protein Phosphatase 5 (PP5). [Related pubchem assays: 2034 (Summary (PP5 inhibitors)), 1987 (PP5 inhibitors in singlate), 2235 (PP1 inhibitors in singlate)]
Serine/threonine-protein phosphatase, sequence (Q9BPW0 whole entry): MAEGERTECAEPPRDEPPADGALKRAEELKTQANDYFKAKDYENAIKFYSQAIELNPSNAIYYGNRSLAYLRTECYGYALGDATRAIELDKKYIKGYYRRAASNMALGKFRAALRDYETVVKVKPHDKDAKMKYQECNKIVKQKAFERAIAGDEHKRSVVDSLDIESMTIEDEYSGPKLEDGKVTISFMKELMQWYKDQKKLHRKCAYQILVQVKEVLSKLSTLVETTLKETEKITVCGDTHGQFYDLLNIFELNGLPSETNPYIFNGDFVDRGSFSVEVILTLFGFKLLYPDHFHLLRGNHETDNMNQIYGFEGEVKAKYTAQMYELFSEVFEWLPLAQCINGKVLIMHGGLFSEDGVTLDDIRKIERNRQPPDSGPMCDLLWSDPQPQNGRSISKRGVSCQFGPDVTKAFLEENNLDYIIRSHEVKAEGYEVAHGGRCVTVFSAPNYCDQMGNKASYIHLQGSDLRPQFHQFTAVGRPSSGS

[27] = nonselective inhibitors of cellular cAMP signaling, dose response, counter-screen for MC4R biased antagonist project, cell-based, TR-FRET cAMP detection (AID 602305); type: functional;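 further: U2OS cells stimulated with forskolin near its EC80 as the cAMP inducer; potency is for inhibition of forskolin-stimulated cAMP signaling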
Streptokinase A = molecular target: T8, Streptokinase A (Streptococcus pyogenes serotype M1, UniProt P10520); assay: S. pyogenes streptokinase expression inhibitors, potency, dose response, plasminogen activation absorbance, OD405 (AID 1914); type: functional, Streptococcus pyogenes M1 GAS;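 further: secreted streptokinase activity via plasminogen activation per viability signal from cell pellet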
T8 sequence (P10520 whole entry): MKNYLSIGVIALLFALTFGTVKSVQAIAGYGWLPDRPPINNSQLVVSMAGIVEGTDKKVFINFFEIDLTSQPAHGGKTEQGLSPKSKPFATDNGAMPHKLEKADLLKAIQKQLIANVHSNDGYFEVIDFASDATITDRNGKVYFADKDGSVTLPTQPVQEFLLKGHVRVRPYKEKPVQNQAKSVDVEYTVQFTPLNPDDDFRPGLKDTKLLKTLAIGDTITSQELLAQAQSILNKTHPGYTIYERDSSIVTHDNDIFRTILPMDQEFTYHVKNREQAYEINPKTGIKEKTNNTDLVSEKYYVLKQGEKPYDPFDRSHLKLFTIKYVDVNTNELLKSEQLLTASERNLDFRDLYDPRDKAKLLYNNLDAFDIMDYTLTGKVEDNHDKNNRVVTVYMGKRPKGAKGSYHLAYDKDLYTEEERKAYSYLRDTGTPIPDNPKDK

[28] = test system: Streptococcus sp. 'group A'; assay: growth inhibition of control SK(-) GAS strain, dose response, counter-screen for streptokinase expression inhibitor project, luminescence, kanamycin, BacTiterGlo, confirmation (AID 1900); type: functional, organism-based
Streptococcus [29] = assay: Luminescence Microorganism-Based Dose Response Follow up to Identify Compounds Cytotoxic to Streptococcus. [Related pubchem assays: 1677 (Project Summary), 1915, 1914, 1902 (Retest at Dose), 1900 (Counter Screen), 1662 (Primary HTS)]; type: functional, organism-based
Streptococcus [30] = assay: Group A Streptococcus viability loss, dose response, counter-screen for streptokinase expression inhibitor project, luminescence, BacTiterGlo (AID 1915); type: functional, organism-based;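 further: potency for reduction of bacterial viability or growth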

C=CCN(C(=O)c1ccccc1Cl)c1nc(-c2ccc(OC)cc2)cs1
IC50 [1]: 50.1 µM (active)
CC50 (Vero [2]): 24 µM (active)
CC50 (Vero [3]): 11.1 µM (active)

CCOC(=O)CSc1nc2ccccc2c(=O)n1CCC(=O)NCCc1ccc(OC)c(OC)c1
EC50 [4]: > 100 µM (not active)

CC1CCc2c(sc(NC(=O)CSc3nc[nH]n3)c2C#N)C1 (configuration not stated)
IC50 [5]: > 80 µM (inactive)
EC50 [6]: < 0.1 µM (active)
EC50 [7]: 0.323 µM (active)
EC50 [8]: < 0.1 µM (active)
EC50 [9]: 0.232 µM (active)
EC50 (cells [10]): 0.337 µM (active)
IC50 (Jurkat): 0.52 µM (active)
EC50 [11]: < 0.1 µM (active)

Nc1nc(Nc2ccc(Cl)cc2)nc2ccccc12
EC50 [12]: 2.37 µM (active)
EC50 [13]: 19.2 µM (inactive)
EC50 [14]: > 67.5 µM (inactive)
EC50 (HT-1080): > 50 µM (not active)
EC50 (cells [15]): > 29.9 µM (inactive)
EC50 [16]: 0.347 µM (active)
IC50 (Protein Rev): > 79.4 µM (not active)
IC50 [17]: 9.98 µM (active)
EC50 [18]: 1.8 µM (active)
IC50 (cells [19]): > 29.9 µM (inactive)

Cc1ccnc2c(N3C(=O)C4C5C=CC(C5)C4(C)C3=O)cccc12 (configuration not stated)
IC50 [20]: > 100 µM (not active)
IC50 [21]: > 100 µM (not active)

CC1=NOC(=O)/C1=C/c1ccc(-c2ccc(Cl)cc2)o1
CC50 [22]: > 40 µM (active)
AC50 [23]: 2.08 µM (active)
IC50 (Protein skinhead-1): 62.2 µM (inactive)
AC50 (INS1): 6.76 µM (active)
IC50 [24]: 6.86 µM (active)
CC50 (Vero [25]): > 25 µM (active)
IC50 (Melanocortin receptor 4): 8.05 µM (active)
IC50 [26]: > 67 µM (not active)
IC50 [27]: 13.4 µM (inactive)

O=[N+]([O-])c1ccc(Nc2nc(NCCO)nc(N3CCCC3)n2)cc1
EC50 (Streptokinase A): 7.48 µM (active)
EC50 [28]: 6.68 µM (active)
EC50 (Streptococcus [29]): 54.3 µM (active)
EC50 (Streptococcus [30]): > 150 µM (not active)
